What was measured:
[1] = Body weight of tumor‐bearing mice (HepG2, Hep3B, PDX1, PDX2); type: in vivo; conditions: CDX and PDX models, compared with control
Method: (§1) When the tumor volume reached approximately 100 mm^3, CDX & PDX tumor‐bearing mice were randomly divided into groups: (1) blank solvent; (2) ZY0511 50 mg/kg per day, i.p.; (3) ZY0511 100 mg/kg per day, i.p.; and (4) combinatorial treatment of ZY0511 50 mg/kg with DTP3 30 mg/kg, per day, i.p. Tumor sizes and animal body weights were monitored every 3 days, and tumor volumes were calculated as 0.5 × length × width^2. TGI rate was calculated as (1 − tumor volume of treated group/tumor volume of control group) x 100%.

LSD1 knockout JHH7 cells = assay: Proliferation of LSD1 knockout JHH7 cells after ZY0511; type: cell-based, human; conditions: ZY0511 treatment for 96 h
Method: Cell viability was determined using Cell Counting Kit‐8 (CCK8; Dojindo) or 3‐(4, 5‐dimethylthiazol‐2‐yl)‐2,5‐diphenyltetrazoliumbromide (MTT, Sigma Aldrich) assay. […] Consequently, cell viability was determined using a microplate reader (Thermo Fisher) at 450 nm for CCK8 assay, or 570 nm for MTT assay, at different time points. The IC50 values and CI values were analyzed and calculated using GraphPad Prism 8 and CompuSyn (version 1.0; http://www.combosyn.com), respectively.

PDX3 tumors = assay: Third PDX model (PDX3), ZY0511 and DTP3; type: in vivo, NOD/SCID mice
Method: (§2) For CDX models, HCC cells (HepG2, Hep3B) were harvested, and cells suspension (5 × 10^6 − 1 × 10^7 cells per mouse) were subcutaneously injected into the hind flank region of nude mice. For PDX models, fresh HCC tissues obtained from West China Hospital were minced into 2–5 mm^3 sizes to build the PDX models. The HCC tissue fragments were transplanted into the hind flank region of NOD/SCID mice within 2 h. Once the tumor volume reached ∼2 cm^3, the PDX models were expanded.
as §1
Both procedures were carried out as previously described.[21] In brief, samples were fixated in 4% paraformaldehyde and consequently paraffin‐coated. Thin tissue segments (4 μm) were prepared, and H&E staining was performed. […]

Hep3B [2] = assay: EdU incorporation assay; conditions: 96 h
Method: EdU assay was utilized to detect proliferating cells. […] EdU‐positive cells were detected by employing high‐throughput screening (HTS; Thermo Fisher), and the EdU incorporation rate was calculated.

Hep3B [3] = assay: Apoptosis analysis (Annexin V, flow cytometry); type: cell-based, human; conditions: 48 h
Method: (§3) Cells were fixed using 70% ethanol and stained with a Cell Cycle Detection Kit (KeyGEN). For apoptosis analysis, cells were exposed to ZY0511 alone or in combination with DTP3 for 48 h. Cells were harvested and stained with PE Annexin V Apoptosis Detection Kit (BD). The cell cycle or apoptosis induction was detected by using a flow cytometer (Agilent NovoCyte). Results were assessed by NovoExpress software (Agilent NovoCyte).

HepG2 = assay: Apoptosis analysis (Annexin V, flow cytometry); type: cell-based, human; conditions: HepG2, 48 h
Method: as §3

Hep3B xenograft = assay: Cell‐derived xenograft (CDX) model; type: in vivo, nude mice; conditions: 100 mg/kg i.p., 18 days
Method: as §2, §1

HepG2 xenograft = assay: Cell‐derived xenograft (CDX) model; type: in vivo, nude mice; conditions: 100 mg/kg i.p., 18 days
Method: as §2, §1

PAK4 = biological target: T1, PAK4 (Homo sapiens, UniProt O96013); assay: Kinase activity detection (Eurofins); type: biochemical; conditions: ZY0511 1 µM, read-out: Inhibition rate
T1 construct: purchased Eurofins Pharma Discovery Services (KinaseProfiler)
T1 sequence (O96013 whole entry): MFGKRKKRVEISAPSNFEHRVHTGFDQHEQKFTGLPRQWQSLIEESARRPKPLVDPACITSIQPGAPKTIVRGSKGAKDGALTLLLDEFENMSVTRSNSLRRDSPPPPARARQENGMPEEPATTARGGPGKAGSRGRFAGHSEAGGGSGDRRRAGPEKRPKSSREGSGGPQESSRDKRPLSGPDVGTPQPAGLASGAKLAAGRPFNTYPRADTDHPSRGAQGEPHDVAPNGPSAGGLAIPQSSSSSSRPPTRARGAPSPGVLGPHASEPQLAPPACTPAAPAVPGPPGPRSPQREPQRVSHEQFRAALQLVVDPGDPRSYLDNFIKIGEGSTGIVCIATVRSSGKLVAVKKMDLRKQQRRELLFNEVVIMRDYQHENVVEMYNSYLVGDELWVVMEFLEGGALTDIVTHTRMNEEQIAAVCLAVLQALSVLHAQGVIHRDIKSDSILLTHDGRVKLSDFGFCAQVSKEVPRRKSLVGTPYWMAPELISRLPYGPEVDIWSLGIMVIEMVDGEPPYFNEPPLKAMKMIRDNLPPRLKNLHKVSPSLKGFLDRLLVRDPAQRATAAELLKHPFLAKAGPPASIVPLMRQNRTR
Method: (§4) The activity of ZY0511 against 104 cancer‐related kinases was carried out by Eurofins Pharma Discovery Services (Celle Lévescault, France).

EGFR (L858R) = biological target: T2, EGFR (L858R) (Homo sapiens, UniProt P00533, L858R); assay: Kinase activity detection (Eurofins); type: biochemical; conditions: ZY0511 1 µM, read-out: Inhibition rate
T2 construct: purchased Eurofins Pharma Discovery Services (KinaseProfiler)
T2 sequence (P00533 25-1210 L858R): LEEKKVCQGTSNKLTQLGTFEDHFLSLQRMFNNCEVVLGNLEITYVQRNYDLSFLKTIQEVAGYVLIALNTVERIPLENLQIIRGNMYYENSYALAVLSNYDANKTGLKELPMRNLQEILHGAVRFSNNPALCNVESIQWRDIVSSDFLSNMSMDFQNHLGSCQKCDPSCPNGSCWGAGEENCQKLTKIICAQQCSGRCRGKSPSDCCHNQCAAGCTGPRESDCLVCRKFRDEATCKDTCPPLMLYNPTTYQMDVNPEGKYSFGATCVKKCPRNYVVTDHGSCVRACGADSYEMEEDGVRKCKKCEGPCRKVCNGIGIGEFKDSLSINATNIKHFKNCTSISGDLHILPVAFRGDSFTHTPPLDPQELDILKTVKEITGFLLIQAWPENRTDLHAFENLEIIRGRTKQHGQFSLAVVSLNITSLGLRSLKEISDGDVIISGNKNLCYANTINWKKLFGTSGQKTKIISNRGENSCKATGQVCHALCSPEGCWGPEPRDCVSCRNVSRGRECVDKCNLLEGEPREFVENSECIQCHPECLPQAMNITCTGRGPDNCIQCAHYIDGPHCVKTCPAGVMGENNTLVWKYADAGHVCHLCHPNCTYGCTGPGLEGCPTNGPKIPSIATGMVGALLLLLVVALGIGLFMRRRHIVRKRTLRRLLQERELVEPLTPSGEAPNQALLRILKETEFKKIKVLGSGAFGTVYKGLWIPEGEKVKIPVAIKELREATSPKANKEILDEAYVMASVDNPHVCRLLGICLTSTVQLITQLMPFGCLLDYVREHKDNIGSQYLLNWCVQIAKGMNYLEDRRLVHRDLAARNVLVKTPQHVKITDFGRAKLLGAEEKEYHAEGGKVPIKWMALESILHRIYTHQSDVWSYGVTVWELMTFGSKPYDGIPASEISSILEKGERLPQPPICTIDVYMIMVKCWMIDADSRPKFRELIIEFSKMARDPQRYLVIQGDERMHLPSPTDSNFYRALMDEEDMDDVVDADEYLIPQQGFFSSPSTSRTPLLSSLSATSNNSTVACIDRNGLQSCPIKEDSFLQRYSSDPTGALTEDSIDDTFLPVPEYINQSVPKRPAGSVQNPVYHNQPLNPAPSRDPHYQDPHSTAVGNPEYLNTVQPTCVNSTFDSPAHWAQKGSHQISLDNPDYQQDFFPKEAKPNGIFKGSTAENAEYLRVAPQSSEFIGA
Method: as §4

IKKε = biological target: T3, IKKε (Homo sapiens, UniProt Q14164); assay: Kinase activity detection (Eurofins); type: biochemical; conditions: ZY0511 1 µM, read-out: Activation rate
T3 construct: purchased Eurofins Pharma Discovery Services (KinaseProfiler)
Method: as §4

Blk = biological target: T4, Blk (Homo sapiens, UniProt P51451); assay: Kinase activity detection (Eurofins); type: biochemical; conditions: ZY0511 1 µM, read-out: Inhibition rate
T4 construct: purchased Eurofins Pharma Discovery Services (KinaseProfiler)
T4 sequence (P51451 whole entry): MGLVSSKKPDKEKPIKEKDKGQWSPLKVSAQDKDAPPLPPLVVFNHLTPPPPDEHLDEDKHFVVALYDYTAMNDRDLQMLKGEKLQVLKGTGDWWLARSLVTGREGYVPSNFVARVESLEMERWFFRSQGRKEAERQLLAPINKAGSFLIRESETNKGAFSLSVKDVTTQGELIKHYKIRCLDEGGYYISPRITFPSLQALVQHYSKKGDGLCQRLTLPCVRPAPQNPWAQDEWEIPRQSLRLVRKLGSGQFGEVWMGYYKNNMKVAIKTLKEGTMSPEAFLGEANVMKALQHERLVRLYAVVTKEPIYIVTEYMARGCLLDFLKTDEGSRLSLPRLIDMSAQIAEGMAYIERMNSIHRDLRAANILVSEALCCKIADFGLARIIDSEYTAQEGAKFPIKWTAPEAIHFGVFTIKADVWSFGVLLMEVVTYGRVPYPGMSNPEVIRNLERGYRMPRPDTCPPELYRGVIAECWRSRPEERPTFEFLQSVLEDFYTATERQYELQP
Method: as §4

[4] = biological target: T5, PI3 Kinase (p110α (E545K)/p85α) (Homo sapiens, UniProt P42336, E545K); assay: Kinase activity detection (Eurofins); type: biochemical; conditions: ZY0511 1 µM, read-out: Inhibition rate
T5 construct: purchased Eurofins Pharma Discovery Services (KinaseProfiler)
Method: as §4

p70S6K = biological target: T6, p70S6K (Homo sapiens, UniProt P23443); assay: Kinase activity detection (Eurofins); type: biochemical; conditions: ZY0511 1 µM, read-out: Inhibition rate
T6 construct: purchased Eurofins Pharma Discovery Services
T6 sequence (P23443 whole entry): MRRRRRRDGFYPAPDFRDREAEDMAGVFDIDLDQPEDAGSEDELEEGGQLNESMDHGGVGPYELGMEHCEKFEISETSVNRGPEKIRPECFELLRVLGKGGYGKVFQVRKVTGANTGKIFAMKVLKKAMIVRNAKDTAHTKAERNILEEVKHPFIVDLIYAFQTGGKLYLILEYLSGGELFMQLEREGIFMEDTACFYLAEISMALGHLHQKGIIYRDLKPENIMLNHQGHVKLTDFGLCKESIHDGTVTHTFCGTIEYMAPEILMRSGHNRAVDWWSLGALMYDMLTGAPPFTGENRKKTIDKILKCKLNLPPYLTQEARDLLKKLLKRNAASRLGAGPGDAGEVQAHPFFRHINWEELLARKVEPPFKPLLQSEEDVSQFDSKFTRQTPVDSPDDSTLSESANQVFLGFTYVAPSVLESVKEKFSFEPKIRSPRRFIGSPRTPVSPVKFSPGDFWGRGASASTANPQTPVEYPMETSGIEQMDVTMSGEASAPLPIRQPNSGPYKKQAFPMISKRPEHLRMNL
Method: as §4

Mer = biological target: T7, Mer (Homo sapiens, UniProt Q12866); assay: Kinase activity detection (Eurofins); type: biochemical; conditions: ZY0511 1 µM, read-out: Activation rate
T7 construct: purchased Eurofins Pharma Discovery Services (KinaseProfiler)
Method: as §4

CK1γ1 = biological target: T8, CK1γ1 (Homo sapiens, UniProt Q9HCP0); assay: Kinase activity detection (Eurofins); type: biochemical; conditions: ZY0511 1 µM, read-out: Inhibition rate
T8 construct: purchased Eurofins Pharma Discovery Services
Method: as §4

Fms = biological target: T9, Fms (Homo sapiens, UniProt P07333); assay: Kinase activity detection (Eurofins); type: biochemical; conditions: ZY0511 1 µM, read-out: Inhibition rate
T9 construct: purchased Eurofins Pharma Discovery Services (KinaseProfiler)
Method: as §4

DYRK2 = biological target: T10, DYRK2 (Homo sapiens, UniProt Q92630); assay: Kinase activity detection (Eurofins); type: biochemical; conditions: ZY0511 1 µM, read-out: Inhibition rate
T10 construct: purchased Eurofins Pharma Discovery Services (KinaseProfiler)
Method: as §4

c-RAF = biological target: T11, c-RAF (Homo sapiens, UniProt P04049); assay: Kinase activity detection (Eurofins); type: biochemical; conditions: ZY0511 1 µM, read-out: Inhibition rate
T11 construct: purchased Eurofins Pharma Discovery Services (KinaseProfiler)
Method: as §4

FGFR3 = biological target: T12, FGFR3 (Homo sapiens, UniProt P22607); assay: Kinase activity detection (Eurofins); type: biochemical; conditions: ZY0511 1 µM, read-out: Inhibition rate
T12 construct: purchased Eurofins Pharma Discovery Services (KinaseProfiler)
Method: as §4

DAPK1 = biological target: T13, DAPK1 (Homo sapiens, UniProt P53355); assay: Kinase activity detection (Eurofins); type: biochemical; conditions: ZY0511 1 µM, read-out: Activation rate
T13 construct: purchased Eurofins Pharma Discovery Services (KinaseProfiler)
T13 sequence (P53355 whole entry): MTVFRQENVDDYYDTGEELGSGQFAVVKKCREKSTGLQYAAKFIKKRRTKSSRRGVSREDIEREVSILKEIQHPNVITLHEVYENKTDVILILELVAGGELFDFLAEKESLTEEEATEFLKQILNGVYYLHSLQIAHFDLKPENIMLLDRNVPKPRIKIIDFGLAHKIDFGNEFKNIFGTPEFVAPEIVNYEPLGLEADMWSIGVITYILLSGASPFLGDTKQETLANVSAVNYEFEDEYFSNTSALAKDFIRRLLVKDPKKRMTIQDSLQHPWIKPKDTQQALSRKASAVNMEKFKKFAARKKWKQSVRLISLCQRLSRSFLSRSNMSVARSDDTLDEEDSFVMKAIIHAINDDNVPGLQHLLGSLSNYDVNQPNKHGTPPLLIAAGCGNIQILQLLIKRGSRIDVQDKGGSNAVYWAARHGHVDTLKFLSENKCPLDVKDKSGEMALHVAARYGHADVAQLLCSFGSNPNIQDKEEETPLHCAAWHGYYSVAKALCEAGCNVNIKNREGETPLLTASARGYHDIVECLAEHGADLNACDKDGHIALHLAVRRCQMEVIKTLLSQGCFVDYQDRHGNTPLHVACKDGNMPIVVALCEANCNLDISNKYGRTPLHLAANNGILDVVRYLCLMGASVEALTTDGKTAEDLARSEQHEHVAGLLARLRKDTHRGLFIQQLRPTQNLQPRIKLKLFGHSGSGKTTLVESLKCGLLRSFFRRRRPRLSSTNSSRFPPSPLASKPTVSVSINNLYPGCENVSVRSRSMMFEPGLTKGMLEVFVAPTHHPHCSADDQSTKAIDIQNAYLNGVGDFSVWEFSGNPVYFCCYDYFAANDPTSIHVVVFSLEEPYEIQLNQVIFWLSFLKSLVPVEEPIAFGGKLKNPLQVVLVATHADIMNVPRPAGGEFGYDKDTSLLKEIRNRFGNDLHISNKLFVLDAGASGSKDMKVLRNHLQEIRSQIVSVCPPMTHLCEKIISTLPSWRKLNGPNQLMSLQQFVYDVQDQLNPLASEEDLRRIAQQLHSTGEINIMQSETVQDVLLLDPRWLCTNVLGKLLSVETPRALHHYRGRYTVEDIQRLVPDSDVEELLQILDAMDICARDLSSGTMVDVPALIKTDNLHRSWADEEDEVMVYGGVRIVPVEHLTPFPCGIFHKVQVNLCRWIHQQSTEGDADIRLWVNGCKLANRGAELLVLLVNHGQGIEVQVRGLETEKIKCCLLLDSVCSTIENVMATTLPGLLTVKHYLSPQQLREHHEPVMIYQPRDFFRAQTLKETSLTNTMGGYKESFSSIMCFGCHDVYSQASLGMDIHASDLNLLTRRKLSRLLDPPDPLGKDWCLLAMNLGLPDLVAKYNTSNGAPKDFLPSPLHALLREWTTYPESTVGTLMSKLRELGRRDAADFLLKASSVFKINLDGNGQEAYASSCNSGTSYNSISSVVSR
Method: as §4

EphA7 = biological target: T14, EphA7 (Rattus norvegicus, UniProt P54759); assay: Kinase activity detection (Eurofins); type: biochemical; conditions: ZY0511 1 µM, read-out: Inhibition rate
T14 construct: purchased Eurofins Pharma Discovery Services
T14 sequence (P54759 577-998 limits assumed): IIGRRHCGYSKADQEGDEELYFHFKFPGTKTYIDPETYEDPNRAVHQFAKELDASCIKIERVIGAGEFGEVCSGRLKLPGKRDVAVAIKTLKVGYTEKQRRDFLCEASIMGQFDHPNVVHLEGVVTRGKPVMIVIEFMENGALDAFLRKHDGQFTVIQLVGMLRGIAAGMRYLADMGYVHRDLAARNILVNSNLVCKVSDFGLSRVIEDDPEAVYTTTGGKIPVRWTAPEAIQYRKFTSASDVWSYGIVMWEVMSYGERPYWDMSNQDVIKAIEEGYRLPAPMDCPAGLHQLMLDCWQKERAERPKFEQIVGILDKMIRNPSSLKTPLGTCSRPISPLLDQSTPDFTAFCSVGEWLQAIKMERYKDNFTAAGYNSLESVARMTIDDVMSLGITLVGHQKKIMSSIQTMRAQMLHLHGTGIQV
Method: as §4

PI3 Kinase (p110δ/p85α) = biological target: T15, PI3 Kinase (p110δ/p85α) (Homo sapiens, UniProt O00329); assay: Kinase activity detection (Eurofins); type: biochemical; conditions: ZY0511 1 µM, read-out: Inhibition rate
T15 construct: purchased Eurofins Pharma Discovery Services (KinaseProfiler)
Method: as §4

Tie2 = biological target: T16, Tie2 (Homo sapiens, UniProt Q02763); assay: Kinase activity detection (Eurofins); type: biochemical; conditions: ZY0511 1 µM, read-out: Inhibition rate
T16 construct: purchased Eurofins Pharma Discovery Services (KinaseProfiler)
Method: as §4

For `O=C(N/N=C1\CCc2c(Cl)ccc(O)c21)c1cccc(S(=O)(=O)N2CCOCC2)c1` [ZY0511, (E)‐N'‐(2, 3‐dihydro‐1H‐inden‐1‐ylidene) benzohydrazides], the “body weight of mice” value [1] was “did not change”, the “decrease of sensitivity of JHH7 cells to ZY0511 by LSD1 knockout” value (LSD1 knockout JHH7 cells) was 20% and the TGI (PDX3 tumors; PDX3, ZY0511 50 mg/kg i.p., 15 days) was 32.79%. For the same compound, the mice body weight (PDX3 tumors; PDX3, ZY0511 and/or DTP3, 15 days) was “no change”, the “inhibition rate of EdU‐positive cells” value (Hep3B [2]) was 99.9% and the apoptotic rate (Hep3B [3]) was 6.98%. For the same compound, the apoptotic rate (HepG2) was 6.49%, the “tumor growth inhibition (TGI)” value (Hep3B xenograft) was 52.70% and the “tumor growth inhibition (TGI)” value (HepG2 xenograft) was 58.29%. It also gave an inhibition at 1 µM (PAK4) of 20%, an inhibition at 1 µM (EGFR (L858R)) of 8% and an activation at 1 µM (IKKε) of 1%. The inhibition at 1 µM (Blk) was 29%, the inhibition at 1 µM [4] was 15% and the inhibition at 1 µM (p70S6K) was 11%. It also gave an activation at 1 µM (Mer) of 2%, an inhibition at 1 µM (CK1γ1) of 12% and an inhibition at 1 µM (Fms) of 7%. It also gave an inhibition at 1 µM (DYRK2) of 5%, an inhibition at 1 µM (c-RAF) of 43% and an inhibition at 1 µM (FGFR3) of 20%. The activation at 1 µM (DAPK1) was 5%, the inhibition at 1 µM (EphA7) was 2% and the inhibition at 1 µM (PI3 Kinase (p110δ/p85α)) was 6%. For the same compound, the inhibition at 1 µM (Tie2) was 50%.

From paper PMC10209615, “Pharmacological inhibition of LSD1 suppresses growth of hepatocellular carcinoma by inducing GADD45B” (MedComm, 2023)
